From patent US7700590B2, “Antibacterial agents” (University of New Orleans Research and Technology …, priority 2006, dated 2010)
In brackets after ≈: the same amount, converted by molar mass.

Key:
Type in all cases: cell-based
[1] = test system: Staphylococcus aureus 29213; test: Antibacterial growth inhibition assay (serial dilution, colorimeter at 600 nm), S. aureus 29213; design: key to MIC, concentration at 50% inhibition of bacteria growth, S. aureus 29213: N stands for no inhibition; conditions: for MIC, concentration at 50% inhibition of bacteria growth, S. aureus 29213 / MIC: 50% growth inhibition, methicillin susceptible strain, serial dilution 238-0.46 μg/ml; for MIC / MIC90: Staphylococcus aureus, 29213; for MIC: read-out: MIC, concentration at 50% inhibition of bacteria growth, S. aureus 29213; for MIC90: concentration of inhibition at 90%, Table 2, read-out: MIC90 S. aureus 29213
Description: (§1) The antibacterial activities of the compounds synthesized as described above were evaluated by assay against several strains of Gram positive bacteria from the American Type Culture Collection (ATCC), Staphylococcus aureus 29213, Staphylococcus aureus 43300, Enterococcus faecalis 29212, and Bacillus subtilis PY79. The minimum inhibition concentration (MIC, μg/mL) of each compound synthesized was tested against four bacterial strains. The inhibition of bacterial growth was monitored using a standard colorimeter at 600 nm using a serial dilution at concentrations 238, 119, 59.5, 29.8, 14.9, 7.44, 3.72, 1.86, 0.93, 0.46 μg/ml. Chloramphenicol was tested as a control, and inhibits bacteria growth (MIC90) at 7.44, 7.44, 4.0, 2.0 μg/mL, respectively, for the four bacterial strains listed in Table 1. In Table 1, the MICs are reported as the concentrations at 50% inhibition of bacteria growth, and N stands for no inhibition.

[2] = test system: Staphylococcus aureus 43300; test: Antibacterial growth inhibition assay (serial dilution, colorimeter at 600 nm), S. aureus 43300; design: key to MIC, concentration at 50% inhibition of bacteria growth, S. aureus 43300: N stands for no inhibition; conditions: for MIC, concentration at 50% inhibition of bacteria growth, S. aureus 43300 / MIC: 50% growth inhibition, methicillin resistant strain, serial dilution 238-0.46 μg/ml; for MIC: Staphylococcus aureus, 43300, read-out: MIC, concentration at 50% inhibition of bacteria growth, S. aureus 43300
Description: as §1

[3] = test system: Enterococcus faecalis 29212; test: Antibacterial growth inhibition assay (serial dilution, colorimeter at 600 nm), E. faecalis 29212; design: key to MIC, concentration at 50% inhibition of bacteria growth, E. faecalis 29212: N stands for no inhibition; conditions: for MIC, concentration at 50% inhibition of bacteria growth, E. faecalis 29212 / MIC: 50% growth inhibition, vancomycin susceptible strain, serial dilution 238-0.46 μg/ml; for MIC: Enterococcus faecalis, 29212, read-out: MIC, concentration at 50% inhibition of bacteria growth, E. faecalis 29212
Description: as §1

Bacillus subtilis PY79 = test: Antibacterial growth inhibition assay (serial dilution, colorimeter at 600 nm), B. subtilis PY79; design: key to MIC, concentration at 50% inhibition of bacteria growth, B. subtilis PY79: N stands for no inhibition; conditions: for MIC, concentration at 50% inhibition of bacteria growth, B. subtilis PY79 / MIC: 50% growth inhibition, serial dilution 238-0.46 μg/ml; for MIC / MIC90: Bacillus subtilis, PY79; for MIC: read-out: MIC, concentration at 50% inhibition of bacteria growth, B. subtilis PY79; for MIC90: concentration of inhibition at 90%, Table 2, read-out: MIC90 B. subtilis PY79
Description: as §1

[4] = test system: Gram positive bacteria, including S. aureus, E. faecalis and B. subtilis; test: Antibacterial activity, statements not tied to one strain; conditions: for antibacterial activity in words: strain not singled out
Description: as §1

CCN1CC[C@@H](CN(Cc2ccccc2)Cc2cccnc2)OC1=O [Compound A14]
MIC, concentration at 50% inhibition of bacteria growth, S. aureus 29213 [1]: N
MIC, concentration at 50% inhibition of bacteria growth, S. aureus 43300 [2]: N
MIC, concentration at 50% inhibition of bacteria growth, E. faecalis 29212 [3]: 238 µg/mL
MIC, concentration at 50% inhibition of bacteria growth, B. subtilis PY79 (Bacillus subtilis PY79): N
antibacterial activity in words [4]: decreased or nullified

CCN1CC[C@@H](CN(Cc2ccccc2)Cc2ccccc2C)OC1=O [Compound A17]
concentration of complete (greater than 90%) inhibition ([1]; S. aureus 29213): 30 µg/mL
MIC [1]: 22 µg/mL (≈ 62.4 µM)
MIC90 [1]: 29.8 µg/mL (≈ 84.5 µM)
concentration of complete (greater than 90%) inhibition ([2]; S. aureus 43300, methicillin resistant): 30 µg/mL
MIC [2]: 22.5 µg/mL (≈ 63.8 µM)
concentration inhibiting over 90% growth ([3]; E. faecalis 29212): 14.9 µg/mL
MIC [3]: 8.1 µg/mL (≈ 23 µM)
MIC (Bacillus subtilis PY79): 26 µg/mL (≈ 73.8 µM)
MIC90 (Bacillus subtilis PY79): 59.5 µg/mL (≈ 169 µM)
antibacterial activity in words [4]: most potent

CCN1CC[C@@H](CN(Cc2ccccc2)Cc2ccc(Cl)c(Cl)c2)OC1=O [Compound A11, 6-{[benzyl-(3,4-dichloro-benzyl)-amino]-methyl}-3-ethyl-[1,3]oxazinan-2-one]
antibacterial activity in words ([1]; S. aureus 29213): excellent activity
MIC [1]: 5.6 µg/mL (≈ 13.7 µM)
MIC90 [1]: 9.85 µg/mL (≈ 24.2 µM)
antibacterial activity in words ([2]; S. aureus 43300): excellent activity
MIC [2]: 6.56 µg/mL (≈ 16.1 µM)
MIC, concentration at 50% inhibition of bacteria growth, E. faecalis 29212 [3]: N
antibacterial activity in words ([3]; E. faecalis 29212): no activity
antibacterial activity in words (Bacillus subtilis PY79; B. subtilis PY79): excellent activity
MIC (Bacillus subtilis PY79): 5 µg/mL (≈ 12.3 µM)
MIC90 (Bacillus subtilis PY79): 7.44 µg/mL (≈ 18.3 µM)
MIC90 ([4]; strain not named in the sentence (Table 2: S. aureus 29213, B. subtilis PY79)): < 10 µg/mL
antibacterial activity in words [4]: most potent

CCN1CC[C@@H](CN(Cc2ccccc2)Cc2ccccn2)OC1=O [Compound A15]
MIC, concentration at 50% inhibition of bacteria growth, S. aureus 29213 [1]: N
MIC, concentration at 50% inhibition of bacteria growth, S. aureus 43300 [2]: N
MIC, concentration at 50% inhibition of bacteria growth, E. faecalis 29212 [3]: N
MIC, concentration at 50% inhibition of bacteria growth, B. subtilis PY79 (Bacillus subtilis PY79): N
antibacterial activity in words [4]: decreased or nullified

CN1CC[C@@H](CN(Cc2ccccc2)Cc2ccc3ccccc3c2)OC1=O [Compound B9]
MIC [1]: 11.5 µg/mL (≈ 30.7 µM)
MIC90 [1]: 14.9 µg/mL (≈ 39.8 µM)
MIC [2]: 13 µg/mL (≈ 34.7 µM)
MIC [3]: 14.9 µg/mL (≈ 39.8 µM)
MIC (Bacillus subtilis PY79): 12 µg/mL (≈ 32 µM)
MIC90 (Bacillus subtilis PY79): 30 µg/mL (≈ 80.1 µM)
antibacterial activity in words [4]: most potent
